# Biological target: NK-1 receptor (Meriones unguiculatus, UniProt Q5DUB1)
# Assay: GR73632-induced hindlimb scratching behaviour in the Mongolian gerbil
# Format: in vivo
# Conditions: mean ± s.e.m.
# From the text: 5) Particularly the antipruritic effect of orvepitant maleate was determinated in GR73632-induced scratching behaviour in the Mongolian gerbil. According to this metholody the scratching behaviour was induced by GR73632 which is a specific agonist of the NK-1 receptor.
# 72 male Mongolian gerbils (58-78 g) after a minimum habituation period of 10 days prior to study commencement, were acclimatised to the procedure room in their home cages, with food and water available ad libitum. The day before the experiment was due to commence a 1 cm×1 cm squared area between the shoulder blades was shaved free of hair.
# Habituation to the apparatus (custom made observation chambers; approximately 30×30 cm; 2 animals per observation) took place 30 minutes prior to induction of scratching behaviours using GR73632.
# A 10 mg/kg stock solution of orvepitant maleate was made by dissolving 20 mg of orvepitant maleate Form 1 in 20 mls of vehicle (5% DMSO & 95% HPMC (0.5%)). This stock solution was serially diluted to prepare doses of 0.1, 0.3, 1.0, 3.0 or 10 mg/kg orvepitant maleate.
# At T=−60 mins mongolian gerbils were dosed with orvepitant maleate (0.1, 0.3, 1.0, 3.0 or, 10 mg/kg p.o.). Gerbils were allocated to dosing groups based on a Latin square design. 30 Minutes later (T=−30 mins) gerbils were placed into the observation chamber for 30 minutes habituation. At T=0 Gerbils were then dosed with GR73632 (30 nmol/100 uL; i.d.) between the shoulder blades and their subsequent hindlimb scratching behaviour recorded using GeoVision surveillance software over a 30 minute period.
# Playing back of the video served for counting scratching behaviour. […] Cumulative frequency and duration (secs) of scratching was scored in 5 min epochs. Treatment groups were randomised based on a Latin Square design. The experimenter was blinded to the treatment groups.
# Repeated measures ANOVA followed by Planned comparison test using GraphPad Prism. (p<0.05 considered significant). Data were analysed by comparing treatment groups to control group at each time point.
# Sequence of NK-1 receptor (Q5DUB1 whole entry): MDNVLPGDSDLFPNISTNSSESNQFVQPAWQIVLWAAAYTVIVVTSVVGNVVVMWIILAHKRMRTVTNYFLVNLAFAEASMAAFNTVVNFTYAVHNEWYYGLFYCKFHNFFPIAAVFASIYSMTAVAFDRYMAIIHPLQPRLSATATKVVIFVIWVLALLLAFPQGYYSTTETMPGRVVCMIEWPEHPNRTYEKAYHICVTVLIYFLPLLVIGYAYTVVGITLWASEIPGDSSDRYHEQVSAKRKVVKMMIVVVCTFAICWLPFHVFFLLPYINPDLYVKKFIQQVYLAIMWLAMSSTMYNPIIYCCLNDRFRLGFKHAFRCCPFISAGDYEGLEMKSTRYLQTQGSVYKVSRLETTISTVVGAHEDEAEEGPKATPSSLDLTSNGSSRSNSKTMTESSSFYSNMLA
smiles,measurement,setting,value
"Cc1cc(F)ccc1[C@H]1C[C@@H](N2CCN3C(=O)CC[C@H]3C2)CCN1C(=O)N(C)[C@H](C)c1cc(C(F)(F)F)cc(C(F)(F)F)c1.O=C(O)/C=C\C(=O)O [orvepitant maleate, 2-(R)-(4-Fluoro-2-methyl-phenyl)-4-(S)-((8aS)-6-oxo-hexahydro-pyrrolo[1,2-a]-pyrazin-2-yl)-piperidine-1-carboxylic acid [1-(R)-(3,5-bis-trifluoromethyl-phenyl)-ethyl]-methylamide maleate]",Cumulative duration of hindlimb scratching,"0.1 mg/kg p.o., 0-5 mins after GR73632 i.d., vehicle 5.35 ± 1.37",NS 2.76 ± 0.71 secs
same,Cumulative frequency of hindlimb scratching,"0.1 mg/kg p.o., 0-5 mins after GR73632 i.d., vehicle 7.75 ± 2.18",NS4.08 ± 1.45
same,Cumulative duration of hindlimb scratching,"0.1 mg/kg p.o., 5-10 mins after GR73632 i.d., vehicle 11.71 ± 1.93",**4.20 ± 0.85 secs
same,Cumulative frequency of hindlimb scratching,"0.1 mg/kg p.o., 5-10 mins after GR73632 i.d., vehicle 14.41 ± 2.49",**5.83 ± 1.55
same,Cumulative duration of hindlimb scratching,"0.1 mg/kg p.o., 10-15 mins after GR73632 i.d., vehicle 16.54 ± 2.58",***5.96 ± 1.16 secs
same,Cumulative frequency of hindlimb scratching,"0.1 mg/kg p.o., 10-15 mins after GR73632 i.d., vehicle 20.25 ± 2.97",***7.91 ± 1.74
same,Cumulative duration of hindlimb scratching,"0.1 mg/kg p.o., 15-20 mins after GR73632 i.d., vehicle 20.08 ± 2.83",***7.86 ± 1.67 secs
same,Cumulative frequency of hindlimb scratching,"0.1 mg/kg p.o., 15-20 mins after GR73632 i.d., vehicle 24.33 ± 3.22",***9.66 ± 1.92
same,Cumulative duration of hindlimb scratching,"0.1 mg/kg p.o., 20-25 mins after GR73632 i.d., vehicle 23.19 ± 2.80",***8.99 ± 2.09 secs
same,Cumulative frequency of hindlimb scratching,"0.1 mg/kg p.o., 20-25 mins after GR73632 i.d., vehicle 28.25 ± 3.26",***10.91 ± 2.07
same,Cumulative duration of hindlimb scratching,"0.1 mg/kg p.o., 25-30 mins after GR73632 i.d., vehicle 25.69 ± 3.026",***9.67 ± 2.14 secs
same,Cumulative frequency of hindlimb scratching,"0.1 mg/kg p.o., 25-30 mins after GR73632 i.d., vehicle 32.00 ± 3.60",***11.58 ± 2.12
same,Cumulative duration of hindlimb scratching,"0.3 mg/kg p.o., 0-5 mins after GR73632 i.d., vehicle 5.35 ± 1.37",NS 2.06 ± 0.62 secs
same,Cumulative frequency of hindlimb scratching,"0.3 mg/kg p.o., 0-5 mins after GR73632 i.d., vehicle 7.75 ± 2.18",NS3.00 ± 0.88
same,Cumulative duration of hindlimb scratching,"0.3 mg/kg p.o., 5-10 mins after GR73632 i.d., vehicle 11.71 ± 1.93",**3.50 ± 0.88 secs
same,Cumulative frequency of hindlimb scratching,"0.3 mg/kg p.o., 5-10 mins after GR73632 i.d., vehicle 14.41 ± 2.49",***4.91 ± 1.15
same,Cumulative duration of hindlimb scratching,"0.3 mg/kg p.o., 10-15 mins after GR73632 i.d., vehicle 16.54 ± 2.58",***5.86 ± 1.44 secs
same,Cumulative frequency of hindlimb scratching,"0.3 mg/kg p.o., 10-15 mins after GR73632 i.d., vehicle 20.25 ± 2.97",***7.50 ± 1.56
same,Cumulative duration of hindlimb scratching,"0.3 mg/kg p.o., 15-20 mins after GR73632 i.d., vehicle 20.08 ± 2.83",***7.09 ± 1.63 secs
same,Cumulative frequency of hindlimb scratching,"0.3 mg/kg p.o., 15-20 mins after GR73632 i.d., vehicle 24.33 ± 3.22",***8.66 ± 1.61
same,Cumulative duration of hindlimb scratching,"0.3 mg/kg p.o., 20-25 mins after GR73632 i.d., vehicle 23.19 ± 2.80",***8.58 ± 1.93 secs
same,Cumulative frequency of hindlimb scratching,"0.3 mg/kg p.o., 20-25 mins after GR73632 i.d., vehicle 28.25 ± 3.26",***10.00 ± 1.62
same,Cumulative duration of hindlimb scratching,"0.3 mg/kg p.o., 25-30 mins after GR73632 i.d., vehicle 25.69 ± 3.026",***10.27 ± 2.17 secs
same,Cumulative frequency of hindlimb scratching,"0.3 mg/kg p.o., 25-30 mins after GR73632 i.d., vehicle 32.00 ± 3.60",***11.75 ± 1.90
same,Cumulative duration of hindlimb scratching,"1.0 mg/kg p.o., 0-5 mins after GR73632 i.d., vehicle 5.35 ± 1.37",NS 2.74 ± 1.06 secs
same,Cumulative frequency of hindlimb scratching,"1.0 mg/kg p.o., 0-5 mins after GR73632 i.d., vehicle 7.75 ± 2.18",NS3.75 ± 1.30
same,Cumulative duration of hindlimb scratching,"1.0 mg/kg p.o., 5-10 mins after GR73632 i.d., vehicle 11.71 ± 1.93",**4.51 ± 1.05 secs
same,Cumulative frequency of hindlimb scratching,"1.0 mg/kg p.o., 5-10 mins after GR73632 i.d., vehicle 14.41 ± 2.49",**5.91 ± 1.25
same,Cumulative duration of hindlimb scratching,"1.0 mg/kg p.o., 10-15 mins after GR73632 i.d., vehicle 16.54 ± 2.58",***4.92 ± 1.13 secs
same,Cumulative frequency of hindlimb scratching,"1.0 mg/kg p.o., 10-15 mins after GR73632 i.d., vehicle 20.25 ± 2.97",***6.41 ± 1.29
same,Cumulative duration of hindlimb scratching,"1.0 mg/kg p.o., 15-20 mins after GR73632 i.d., vehicle 20.08 ± 2.83",***6.02 ± 1.28 secs
same,Cumulative frequency of hindlimb scratching,"1.0 mg/kg p.o., 15-20 mins after GR73632 i.d., vehicle 24.33 ± 3.22",***8.00 ± 1.39
same,Cumulative duration of hindlimb scratching,"1.0 mg/kg p.o., 20-25 mins after GR73632 i.d., vehicle 23.19 ± 2.80",***7.48 ± 1.55 secs
same,Cumulative frequency of hindlimb scratching,"1.0 mg/kg p.o., 20-25 mins after GR73632 i.d., vehicle 28.25 ± 3.26",***9.66 ± 1.71
same,Cumulative duration of hindlimb scratching,"1.0 mg/kg p.o., 25-30 mins after GR73632 i.d., vehicle 25.69 ± 3.026",***10.00 ± 2.17 secs
same,Cumulative frequency of hindlimb scratching,"1.0 mg/kg p.o., 25-30 mins after GR73632 i.d., vehicle 32.00 ± 3.60",***12.08 ± 2.25
same,Cumulative duration of hindlimb scratching,"3.0 mg/kg p.o., 0-5 mins after GR73632 i.d., vehicle 5.35 ± 1.37",NS 0.96 ± 0.32 secs
same,Cumulative frequency of hindlimb scratching,"3.0 mg/kg p.o., 0-5 mins after GR73632 i.d., vehicle 7.75 ± 2.18",NS1.58 ± 0.46
same,Cumulative duration of hindlimb scratching,"3.0 mg/kg p.o., 5-10 mins after GR73632 i.d., vehicle 11.71 ± 1.93",***1.30 ± 0.38 secs
same,Cumulative frequency of hindlimb scratching,"3.0 mg/kg p.o., 5-10 mins after GR73632 i.d., vehicle 14.41 ± 2.49",***2.16 ± 0.58
same,Cumulative duration of hindlimb scratching,"3.0 mg/kg p.o., 10-15 mins after GR73632 i.d., vehicle 16.54 ± 2.58",***1.79 ± 0.39 secs
same,Cumulative frequency of hindlimb scratching,"3.0 mg/kg p.o., 10-15 mins after GR73632 i.d., vehicle 20.25 ± 2.97",***2.83 ± 0.57
same,Cumulative duration of hindlimb scratching,"3.0 mg/kg p.o., 15-20 mins after GR73632 i.d., vehicle 20.08 ± 2.83",***2.415 ± 0.47 secs
same,Cumulative frequency of hindlimb scratching,"3.0 mg/kg p.o., 15-20 mins after GR73632 i.d., vehicle 24.33 ± 3.22",***3.66 ± 0.64
same,Cumulative duration of hindlimb scratching,"3.0 mg/kg p.o., 20-25 mins after GR73632 i.d., vehicle 23.19 ± 2.80",***2.59 ± 0.50 secs
same,Cumulative frequency of hindlimb scratching,"3.0 mg/kg p.o., 20-25 mins after GR73632 i.d., vehicle 28.25 ± 3.26",***4.00 ± 0.67
same,Cumulative duration of hindlimb scratching,"3.0 mg/kg p.o., 25-30 mins after GR73632 i.d., vehicle 25.69 ± 3.026",***3.09 ± 0.61 secs
same,Cumulative frequency of hindlimb scratching,"3.0 mg/kg p.o., 25-30 mins after GR73632 i.d., vehicle 32.00 ± 3.60",***4.58 ± 0.76
same,Cumulative duration of hindlimb scratching,"10.0 mg/kg p.o., 0-5 mins after GR73632 i.d., vehicle 5.35 ± 1.37",NS 0.57 ± 0.29 secs
same,Cumulative frequency of hindlimb scratching,"10.0 mg/kg p.o., 0-5 mins after GR73632 i.d., vehicle 7.75 ± 2.18",*0.91 ± 0.43
same,Cumulative duration of hindlimb scratching,"10.0 mg/kg p.o., 5-10 mins after GR73632 i.d., vehicle 11.71 ± 1.93",***1.13 ± 0.38 secs
same,Cumulative frequency of hindlimb scratching,"10.0 mg/kg p.o., 5-10 mins after GR73632 i.d., vehicle 14.41 ± 2.49",***1.66 ± 0.60
same,Cumulative duration of hindlimb scratching,"10.0 mg/kg p.o., 10-15 mins after GR73632 i.d., vehicle 16.54 ± 2.58",***2.38 ± 0.78 secs
same,Cumulative frequency of hindlimb scratching,"10.0 mg/kg p.o., 10-15 mins after GR73632 i.d., vehicle 20.25 ± 2.97",***2.58 ± 0.73
same,Cumulative duration of hindlimb scratching,"10.0 mg/kg p.o., 15-20 mins after GR73632 i.d., vehicle 20.08 ± 2.83",***3.22 ± 0.84 secs
same,Cumulative frequency of hindlimb scratching,"10.0 mg/kg p.o., 15-20 mins after GR73632 i.d., vehicle 24.33 ± 3.22",***3.58 ± 0.73
same,Cumulative duration of hindlimb scratching,"10.0 mg/kg p.o., 20-25 mins after GR73632 i.d., vehicle 23.19 ± 2.80",***4.36 ± 1.18 secs
same,Cumulative frequency of hindlimb scratching,"10.0 mg/kg p.o., 20-25 mins after GR73632 i.d., vehicle 28.25 ± 3.26",***5.00 ± 0.92
same,Cumulative duration of hindlimb scratching,"10.0 mg/kg p.o., 25-30 mins after GR73632 i.d., vehicle 25.69 ± 3.026",***5.24 ± 1.35 secs
same,Cumulative frequency of hindlimb scratching,"10.0 mg/kg p.o., 25-30 mins after GR73632 i.d., vehicle 32.00 ± 3.60",***5.91 ± 1.16
